# Assay results as given in patent publication US20230293526A1, “METHOD FOR TREATING CANCER WITH A REVERSE TRANSCRIPTASE INHIBITOR” (PrimeFour Therapeutics, Inc., priority 2020, published 2023).
# Key:
# human LINE-1 = experiment: Human LINE-1 (L1) retrotransposition dual-luciferase reporter assay in HeLa cells; assay type: cell-based; details: Homo sapiens, HeLa, 72 h, read-out: Human LINE-1 IC50 (Human L1 activity inhibition)
# In short: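 Compound dilution series (final DMSO 0.2%) added right after transfecting HeLa cells with the pYX017 L1 dual-luciferase reporter; 72 h culture at 37 °C, 5% CO2, triplicates. IC50 fitted by non-linear logistic regression to firefly-to-Renilla luminescence ratio (×10,000).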
# cancer cell lines = experiment: Cancer cell proliferation activity of representative nucleosides, CellTiterGlo 72 h (Example 7, Tables 8 and 9); assay type: cell-based; details: 72 h
# In short: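 Percent viability was set against 0.1% DMSO (100%) and 10 μM staurosporine (0%), with signal from CellTiterGlo luminescence. Dose-response treatment began one day after seeding and lasted 72 h at 37° C under 5% or 10% CO2, with 0.1% final DMSO.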
smiles,measurement,setting,value
"C#C[C@]1(CO)O[C@@H](n2ccc(N)nc2=O)C[C@@H]1O [compound 7, 4-amino-1-((2R,4S,5R)-5-ethynyl-4-hydroxy-5 (hydroxymethyl)tetrahydrofuran-2-yl)pyrimidin-2(1H)-one]",IC50,human LINE-1,0.0097 µM
same,IC50,"cancer cell lines; 72 h, 5637, bladder",1.24 µM
same,IC50,"cancer cell lines; CLS439, bladder",> 50 µM
same,IC50,"cancer cell lines; HS729, muscle",2.1 µM
same,IC50,"cancer cell lines; J82, bladder",2.77 µM
same,IC50,"cancer cell lines; JAR, placenta",> 50 µM
same,IC50,"cancer cell lines; MT3, breast",0.57 µM
same,IC50,"cancer cell lines; PC3, prostate",1.09 µM
same,IC50,"cancer cell lines; RD, muscle",3.86 µM
same,IC50,"cancer cell lines; T24, bladder",1.03 µM
same,IC50,"cancer cell lines; Homo sapiens, 22Rv1, 72 h, 22RV1, prostate",4.8 µM
same,IC50,"cancer cell lines; Homo sapiens, 786-0, 72 h, 786O, kidney",4.28 µM
same,IC50,"cancer cell lines; Homo sapiens, A204, 72 h, A204, muscle",0.18 µM
same,IC50,"cancer cell lines; Homo sapiens, A549, 72 h, A549, lung",2.19 µM
same,IC50,"cancer cell lines; Homo sapiens, A673, 72 h, A673, bone",1.97 µM
same,IC50,"cancer cell lines; Homo sapiens, A2780, 72 h, A2780, ovary",2.72 µM
same,IC50,"cancer cell lines; Homo sapiens, A-375, 72 h, A375, skin",3.54 µM
same,IC50,"cancer cell lines; Homo sapiens, A-431, 72 h, A431, skin",2.01 µM
same,IC50,"cancer cell lines; Homo sapiens, ACHN, kidney",2.76 µM
same,IC50,"cancer cell lines; Homo sapiens, ASPC1, 72 h, ASPC1, pancreas",1.23 µM
same,IC50,"cancer cell lines; Homo sapiens, BT-20, 72 h, BT20, breast",> 50 µM
same,IC50,"cancer cell lines; Homo sapiens, BXPC-3, 72 h, BXPC3, pancreas",4.12 µM
same,IC50,"cancer cell lines; Homo sapiens, C-33-A, C33A, endometrial",1.03 µM
same,IC50,"cancer cell lines; Homo sapiens, CAKI-1, 72 h, CAKI1, kidney",0.45 µM
same,IC50,"cancer cell lines; Homo sapiens, COLO 205, 72 h, COLO205, colon",0.29 µM
same,IC50,"cancer cell lines; Homo sapiens, COLO-678, 72 h, COLO678, colon",> 50 µM
same,IC50,"cancer cell lines; Homo sapiens, Ca-Ski, CASKI, endometrial",> 50 µM
same,IC50,"cancer cell lines; Homo sapiens, Calu-6, 72 h, CALU6, lung",6.33 µM
same,IC50,"cancer cell lines; Homo sapiens, DLD-1, 72 h, DLD1, colon",4.63 µM
same,IC50,"cancer cell lines; Homo sapiens, DU-145, 72 h, DU145, prostate",3.4 µM
same,IC50,"cancer cell lines; Homo sapiens, EFO-21, 72 h, EFO21, ovary",> 50 µM
same,IC50,"cancer cell lines; Homo sapiens, EJ-28, 72 h, EJ28, bladder",3.05 µM
same,IC50,"cancer cell lines; Homo sapiens, Granta-519, 72 h, GRANTA-519, hematological",0.33 µM
same,IC50,"cancer cell lines; Homo sapiens, HCT-15, 72 h, HCT15, colon",3.28 µM
same,IC50,"cancer cell lines; Homo sapiens, HCT-116, 72 h, HCT116, colon",2.44 µM
same,IC50,"cancer cell lines; Homo sapiens, HEK293, 72 h, HEK293, kidney",> 50 µM
same,IC50,"cancer cell lines; Homo sapiens, HL-60, 72 h, HL-60, hematological",2.03 µM
same,IC50,"cancer cell lines; Homo sapiens, HT-29, 72 h, HT29, colon",4.06 µM
same,IC50,"cancer cell lines; Homo sapiens, HT-1080, 72 h, HT1080, connective tissue",1.58 µM
same,IC50,"cancer cell lines; Homo sapiens, HeLa, endometrial",2.11 µM
same,IC50,"cancer cell lines; Homo sapiens, HepG2, 72 h, HEPG2, liver",3.08 µM
same,IC50,"cancer cell lines; Homo sapiens, Hs-578T, HS578T, breast",4.73 µM
same,IC50,"cancer cell lines; Homo sapiens, IGROV-1, 72 h, IGROV1, ovary",3.42 µM
same,IC50,"cancer cell lines; Homo sapiens, IMR-90, 72 h, IMR90, lung",> 50 µM
same,IC50,"cancer cell lines; Homo sapiens, JEG-3, 72 h, JEG3, placenta",> 50 µM
same,IC50,"cancer cell lines; Homo sapiens, JIMT-1, 72 h, JIMT1, breast",0.82 µM
same,IC50,"cancer cell lines; Homo sapiens, K562, 72 h, K-562, hematological",3.52 µM
same,IC50,"cancer cell lines; Homo sapiens, Kasumi 1, 72 h, KASUMI-1, hematological",0.32 µM
same,IC50,"cancer cell lines; Homo sapiens, L-363, 72 h, L-363, hematological",> 50 µM
same,IC50,"cancer cell lines; Homo sapiens, LoVo, colon",1.9 µM
same,IC50,"cancer cell lines; Homo sapiens, MCF7, 72 h, MCF7, breast",> 50 µM
same,IC50,"cancer cell lines; Homo sapiens, MDA-MB-231, 72 h, MDAMB231, breast",0.48 µM
same,IC50,"cancer cell lines; Homo sapiens, MDA-MB-435, 72 h, MDAMB435, skin",3.49 µM
same,IC50,"cancer cell lines; Homo sapiens, MDA-MB-436, 72 h, MDAMB436, breast",3.8 µM
same,IC50,"cancer cell lines; Homo sapiens, MDA-MB-468, 72 h, MDAMB468, breast",> 50 µM
same,IC50,"cancer cell lines; Homo sapiens, MG-63, 72 h, MG63, bone",2.93 µM
same,IC50,"cancer cell lines; Homo sapiens, MHH-ES-1, 72 h, MHHES1, bone",2.06 µM
same,IC50,"cancer cell lines; Homo sapiens, MIA PaCa-2, 72 h, MIAPACA2, pancreas",5.54 µM
same,IC50,"cancer cell lines; Homo sapiens, MINO, hematological",0.2 µM
same,IC50,"cancer cell lines; Homo sapiens, MV4-11, 72 h, MV4-11, hematological",4.32 µM
same,IC50,"cancer cell lines; Homo sapiens, NCI-H23, 72 h, NCI-H23, lung",2.79 µM
same,IC50,"cancer cell lines; Homo sapiens, NCI-H82, 72 h, NCIH82, lung",17.1 µM
same,IC50,"cancer cell lines; Homo sapiens, NCI-H292, 72 h, NCIH292, lung",1.94 µM
same,IC50,"cancer cell lines; Homo sapiens, NCI-H460, 72 h, NCIH460, ung",2.99 µM
same,IC50,"cancer cell lines; Homo sapiens, OVCAR-3, 72 h, OVCAR3, ovary",2.39 µM
same,IC50,"cancer cell lines; Homo sapiens, OVCAR-4, 72 h, OVCAR4, ovary",> 50 µM
same,IC50,"cancer cell lines; Homo sapiens, PANC-1, 72 h, PANC1, pancreas",> 50 µM
same,IC50,"cancer cell lines; Homo sapiens, PLC-PRF-5, 72 h, PLCPRF5, liver",> 50 µM
same,IC50,"cancer cell lines; Homo sapiens, Panc1005, 72 h, PANC1005, pancreas",2.57 µM
same,IC50,"cancer cell lines; Homo sapiens, Ramos, hematological",0.37 µM
same,IC50,"cancer cell lines; Homo sapiens, SAOS-2, 72 h, SAOS2, bone",0.64 µM
same,IC50,"cancer cell lines; Homo sapiens, SK-BR-3, 72 h, SKBR3, breast",2.11 µM
same,IC50,"cancer cell lines; Homo sapiens, SK-HEP1, 72 h, SKHEP1, liver",1.29 µM
same,IC50,"cancer cell lines; Homo sapiens, SK-LMS-1, 72 h, SKLMS1, uterus",4.2 µM
same,IC50,"cancer cell lines; Homo sapiens, SK-MEL-5, 72 h, SKMEL5, skin",> 50 µM
same,IC50,"cancer cell lines; Homo sapiens, SK-MEL-28, 72 h, SKMEL28, skin",> 50 µM
same,IC50,"cancer cell lines; Homo sapiens, SK-OV-3, 72 h, SKOV3, ovary",3.11 µM
same,IC50,"cancer cell lines; Homo sapiens, SU-DHL10, 72 h, SU-DHL-10, hematological",0.69 µM
same,IC50,"cancer cell lines; Homo sapiens, SU-DHL-6, 72 h, SU-DHL-6, hematological",1.06 µM
same,IC50,"cancer cell lines; Homo sapiens, SW-620, 72 h, SW620, colon",2.93 µM
same,IC50,"cancer cell lines; Homo sapiens, TE-671, 72 h, TE671, muscle",3.49 µM
same,IC50,"cancer cell lines; Homo sapiens, THP-1, 72 h, THP-1, hematological",3.43 µM
same,IC50,"cancer cell lines; Homo sapiens, U2OS, bone",> 50 µM
same,IC50,"cancer cell lines; Homo sapiens, UMUC3, 72 h, UMUC3, bladder",3.07 µM
same,IC50,"cancer cell lines; Homo sapiens, UO-31, 72 h, UO31, kidney",1.53 µM
same,IC50,"cancer cell lines; Homo sapiens, WSU-NHL, hematological",0.34 µM
same,IC50,"cancer cell lines; NCI-H358M, NCIH358M, lung",0.29 µM
same,IC50,"cancer cell lines; PBMC, hematological",> 50 µM
same,IC50,"cancer cell lines; RD-ES, RDES, bone",> 50 µM
